Here are results for 36 compounds from patent publication US11505548B2, “Heterocyclic compounds and their use for treatment of helminthic infections and diseases” (Celgene Corporation, priority 2019, dated 2022).

Like-named read-outs stand apart in the source and are kept apart here.

In this assay the test system is Onchocerca gutturosa Adult Male Worms. As to the kind of experiment: Onchocerciasis in vitro screening model, worm motility score. The assay is classed as cell-based. The note with it: read-out: O. gutturosa activity level (IC50 or MED).
The mark [1] stands for this setting: Onchocerca gutturosa, Table 1 O. gutturosa, levels A/B/C, motility or MTT readout not specified.
Setting [2] is: in vitro, Onchocerca gutturosa adult male worms, class A/B/C.

What is called IC50 is the concentration that inhibits the measured activity by half. As to `Cc1cccnc1Nc1nc(-c2ccc(C(=O)N(C)C)cn2)ns1` [Compound 17, N,N-dimethyl-6-(5-(3-methylpyridin-2-ylamino)-1,2,4-thiadiazol-3-yl)nicotinamide], the IC50 under setting [1] was less than 200 nM.

Turning to `FC(F)(F)c1cncc(Nc2nc(-c3ccccn3)ns2)c1` [Cmpd 3, 3-(pyridin-2-yl)-N-(5-(trifluoromethyl)pyridin-3-yl)-1,2,4-thiadiazol-5-amine], the IC50 under setting [1] was 500 to 5000 nM. As to `COc1ccc(Nc2nnc(-c3ccc(OC(C)C)cn3)o2)nc1` [Compound 180, 5-(5-isopropoxy-pyridin-2-yl)-N-(5-methoxy-pyridin-2-yl)-1,3,4-oxadiazol-2-amine], under setting [1], the IC50 was 500 to 5000 nM. For the compound `COc1cccnc1-c1nsc(Nc2cc(C(F)(F)F)c(C(C)C)cn2)n1` [Compound 210, N-(5-isopropyl-4-(trifluoromethyl)pyridin-2-yl)-3-(3-methoxy-pyridin-2-yl)-1,2,4-thiadiazol-5-amine], under setting [2], the concentration for half-maximal inhibition (IC50) lay in the range of 200 to 500 nM. Consider `CC(C)c1ccnc(-c2nsc(Nc3cc(C(F)(F)F)ccn3)n2)c1` [Compound 86, 3-(4-isopropyl-pyridin-2-yl)-N-(4-(trifluoromethyl)pyridin-2-yl)-1,2,4-thiadiazol-5-amine], for which, under setting [1], the IC50 was less than 200 nM. Still for that read-out and setting: with `CC(C)Oc1ccc(-c2nnc(Nc3ccc(C(C)C)cn3)s2)nc1` [Compound 181, 5-(5-isopropoxy-pyridin-2-yl)-N-(5-isopropyl-pyridin-2-yl)-1,3,4-thiadiazol-2-amine] the figure was 500 to 5000 nM. `COc1ccc(-c2nnc(Nc3cc(OC(C)C)ccn3)[nH]2)nc1` [Compound 257, 4-isopropoxy-N-(5-(5-methoxy-pyridin-2-yl)-4H-1,2,4-triazol-3-yl)pyridin-2-amine]: the IC50 under setting [2] was 500 to 5000 nM. With `Cc1ccnc(Nc2nnc(-c3ncccc3C)s2)c1` [Compound 244, 5-(3-methyl-pyridin-2-yl)-N-(4-methyl-pyridin-2-yl)-1,3,4-thiadiazol-2-amine], the IC50 under setting [2] lay in the range of 500 to 5000 nM. The same measure, in the same setting: in the case of `CC(C)Oc1cnc(-c2nsc(Nc3ncccc3C(F)(F)F)n2)cc1C(=O)N(C)C` [Compound 218, 5-isopropoxy-N,N-dimethyl-2-(5-(3-(trifluoromethyl)pyridin-2-ylamino)-1,2,4-thiadiazol-3-yl)isonico-tinamide] it was 500 to 5000 nM.

As for `COc1ccc(-c2nsc(Nc3cc(OC4CCOCC4)ccn3)n2)nc1` [Compound 46, 3-(5-methoxy-pyridin-2-yl)-N-(4-(tetrahydro-2H-pyran-4-yloxy)pyridin-2-yl)-1,2,4-thiadiazol-5-amine], the IC50 under setting [1] fell in the range of 200 to 500 nM.

For `Cc1cccnc1Nc1nc(-c2ccc(S(=O)(=O)N(C)C)cn2)ns1` [Compound 31, N,N-dimethyl-6-(5-(3-methylpyridin-2-ylamino)-1,2,4-thiadiazol-3-yl)pyridine-3-sulfonamide], the IC50 under setting [1] is 500 to 5000 nM. On to `CC(=O)N(C)c1cc(C(F)(F)F)cnc1Nc1n[nH]c(-c2cc3c(cn2)N(C(C)C)CC3)n1` [Compound 295, N-(2-(5-(1-isopropyl-2,3-dihydro-1H-pyrro1o[2,3-c]pyridin-5-yl)-1H-1,2,4-triazol-3-ylamino)-5-(trifluoromethyl)pyridin-3-yl)-N-methylacetamide], for which the half-maximal inhibitory concentration (IC50) under setting [2] fell in the range of 500 to 5000 nM. Take `CC(C)Oc1ccc(-c2nsc(Nc3nccnc3N(C)C)n2)nc1` [Compound 144, N2-(3-(5-isoprop-oxypyridin-2-yl)-1,2,4-thiadiazol-5-yl)-N3,N3-dimethyl-pyrazine-2,3-diamine]: the IC50 under setting [1] fell in the range of 200 to 500 nM. For `CN1CCC(Oc2ccc(-c3nsc(Nc4ncccc4N(C)C)n3)nc2)CC1` [Compound 59, N3,N3-dimethyl-N2-(3-(5-(1-methylpiperidin-4-yloxy)pyridin-2-yl)-1,2,4-thiadiazol-5-yl)pyridine-2,3-diamine], under setting [1], the 50% inhibitory concentration (IC50) lay in the range of 500 to 5000 nM. On the same count and under the same terms, with `COc1cnc(-c2nsc(Nc3ncccc3C)n2)cn1` [Compound 125, 3-(5-methoxy-pyrazin-2-yl)-N-(3-methyl-pyridin-2-yl)-1,2,4-thiadiazol-5-amine] the figure was 500 to 5000 nM.

Take `COc1cccnc1Nc1nc(-c2cc(C(F)(F)F)c(OC(C)C)cn2)ns1` [Compound 167, 3-(5-isopropoxy-4-(trifluoromethyl)pyridin-2-yl)-N-(3-methoxypyridin-2-yl)-1,2,4-thiadiazol-5-amine]: the IC50 under setting [1] was in the range of 200 to 500 nM. For `CC(=O)N(C)c1cccnc1Nc1nc(-c2ccc(OC(C)C)cn2)no1` [Compound 222, N-(2-(3-(5-isopropoxy-pyridin-2-yl)-1,2,4-oxadiazol-5-ylamino)pyridin-3-yl)-N-methyl-acetamide], under setting [2], the IC50 fell in the range of 500 to 5000 nM. For the compound `CN(C)c1cccnc1Nc1nc(-c2cc(OC3CC3)c(C(F)(F)F)cn2)ns1` [Compound 153, N2-(3-(4-cyclo-propoxy-5-(trifluoromethyl)pyridin-2-yl)-1,2,4-thiadiazol-5-yl)-N3,N3-dimethyl-pyridine-2,3-diamine], under setting [1], the IC50 fell in the range of 500 to 5000 nM.

Consider `CC(C)Oc1ccc(-c2n[nH]c(Nc3ncccc3C(F)(F)F)n2)nc1` [Compound 70, N-(3-(5-isopropoxy-pyridin-2-yl)-1H-1,2,4-triazol-5-yl)-3-(trifluoromethyl) pyridin-2-amine], for which, under setting [1], the IC50 fell in the range of 500 to 5000 nM. In the case of `CC(=O)N(C)c1cc(C(F)(F)F)cnc1Nc1nc(-c2cc(C(C)C)ccn2)ns1` [Compound 301, N-(2-(3-(4-isopropylpyridin-2-yl)-1,2,4-thiadiazol-5-ylamino)-5-(trifluoromethyl)pyridin-3-yl)-N-methylacetamide], the IC50 under setting [2] is less than 200 nM. Turning to `Cc1ccnc(Nc2nnc(-c3ncccc3C)[nH]2)c1` [Compound 242, 4-methyl-N-(5-(3-methyl-pyridin-2-yl)-4H-1,2,4-triazol-3-yl)pyridin-2-amine], under setting [2], the IC50 lay in the range of 500 to 5000 nM. As to `CC(C)Oc1ccc(-c2nsc(Nc3ncc(C(F)(F)F)cc3S(=O)(=O)N(C)C)n2)nc1` [Compound 286, 2-(3-(5-isopropoxy-pyridin-2-yl)-1,2,4-thiadiazol-5-ylamino)-N,N-dimethyl-5-(trifluoromethyl) pyridine-3-sulfonamide], the IC50 under setting [2] lay in the range of 500 to 5000 nM. For `CNc1cccnc1Nc1nc(-c2ccc(OC3CCN(C)CC3)cn2)ns1` [Compound 53, N3-methyl-N2-(3-(5-(1-methyl-piperidin-4-yloxy)pyridin-2-yl)-1,2,4-thiadiazol-5-yl) pyridine-2,3-diamine], under setting [1], the IC50 is 200 to 500 nM. With `CC(=O)N(C)c1cccnc1Nc1nc(-c2ccc(OC3CCN(C(C)C)CC3(F)F)cn2)ns1` (stereo not drawn) [Compound 203, N-(2-(3-(5-(3,3-difluoro-1-isopropyl-piperidin-4-yloxy)pyridin-2-yl)-1,2,4-thiadiazol-5-ylamino)pyridin-3-yl)-N-methylacetamide], the IC50 under setting [2] was in the range of 500 to 5000 nM.

On to `CC(=O)N1CCC(Oc2ccc(-c3nsc(Nc4ncccc4C)n3)nc2)CC1` [Compound 266, 1-(4-(6-(5-(3-methyl-pyridin-2-ylamino)-1,2,4-thiadiazol-3-yl)pyridin-3-yloxy)piperidin-1-yl)ethanone], for which the IC50 under setting [2] lay in the range of 500 to 5000 nM. In the case of `CN(C)C(=O)c1cc(C(F)(F)F)cnc1Nc1nc(-c2cc3c(cn2)N(C)C(C)(C)C3)ns1` [Compound 293, N,N-dimethyl-5-(trifluoromethyl)-2-(3-(1,2,2-trimethyl-2,3-dihydro-1H-pyrrolo[2,3-c]pyridin-5-yl)-1,2,4-thiadiazol-5-ylamino) nicotinamide], under setting [2], the IC50 is less than 200 nM. With `Cc1cccnc1Nc1nc(-c2ccc(C3CCN(C)CC3)cn2)ns1` [Compound 48, 3-(5-(1-methyl-piperidin-4-yl)pyridin-2-yl)-N-(3-methylpyridin-2-yl)-1,2,4-thiadiazol-5-amine], under setting [1], the IC50 was 500 to 5000 nM. For the compound `CN(C)c1cccnc1Nc1nc(-c2ccc(OC(F)F)cn2)ns1` [Compound 120, N2-(3-(5-(difluoromethoxy)pyridin-2-yl)-1,2,4-thiadiazol-5-yl)-N3,N3-dimethyl-pyridine-2,3-diamine], under setting [1], the IC50 is 500 to 5000 nM. `CC(=O)N1CCc2cc(-c3nsc(Nc4ncccc4C(F)(F)F)n3)ncc21` [Compound 267, 1-(5-(5-(3-(trifluoromethyl)pyridin-2-ylamino)-1,2,4-thiadiazol-3-yl)-2,3-dihydro-1H-pyrrolo[2,3-c]pyridin-1-yl)ethanone]: the 50% inhibitory concentration (IC50) under setting [2] was 500 to 5000 nM. For the compound `CC(=O)N(C)c1cnc(Nc2nc(-c3ncccc3OC(C)C)ns2)c(C(F)(F)F)c1` [Compound 279, N-(6-(3-(3-isopropoxy-pyridin-2-yl)-1,2,4-thiadiazol-5-ylamino)-5-(trifluoro-methyl)pyridin-3-yl)-N-methylacetamide], the IC50 under setting [2] lay in the range of 500 to 5000 nM.

With `COC(=O)c1cc(-c2nsc(Nc3ncccc3C)n2)ncc1OC(C)C` [Compound 196, methyl 5-isopropoxy-2-(5-(3-methylpyridin-2-ylamino)-1,2,4-thiadiazol-3-yl)isonicotinate], under setting [1], the IC50 is 200 to 500 nM. For `COc1ccc(Nc2nnc(-c3cc(OC(C)C)ccn3)o2)nc1` [Compound 212, 5-(4-isoprop-oxypyridin-2-yl)-N-(5-methoxy-pyridin-2-yl)-1,3,4-oxadiazol-2-amine], under setting [2], the 50% inhibitory concentration (IC50) lay within 500 to 5000 nM. Still for that read-out and setting: in the case of `c1ccc(-c2ccnc(Nc3nc(-c4ccccn4)no3)c2)cc1` [Compound 246, N-(4-phenyl-pyridin-2-yl)-3-(pyridin-2-yl)-1,2,4-oxadiazol-5-amine] it was 500 to 5000 nM. `CC(C)Oc1ccc(-c2nsc(Nc3ncccc3N(C)C(=O)C3CCCC3)n2)nc1` [Compound 172, N-(2-(3-(5-isopropoxy-pyridin-2-yl)-1,2,4-thiadiazol-5-ylamino)pyridin-3-yl)-N-methylcyclo-pentane-carboxamide]: under setting [1], the IC50 was less than 200 nM. Still for that read-out and setting: in the case of `CC(C)c1cccnc1Nc1nc(-c2ccc(O[C@@H]3CCN(C4CC4)C[C@H]3F)cn2)ns1` [Compound 90, 3-(5-((3R,4R)-1-cyclopropyl-3-fluoro-piperidin-4-yloxy)pyridin-2-yl)-N-(3-isopropylpyridin-2-yl)-1,2,4-thiadiazol-5-amine] it was less than 200 nM; in that of `Cc1cccnc1Nc1nc(-c2ccc(OC3CCN(C4CC4)CC3(F)F)cn2)ns1` (stereo not drawn) [Compound 83, 3-(5-(1-cyclo-propyl-3,3-difluoro-piperidin-4-yloxy)pyridin-2-yl)-N-(3-methylpyridin-2-yl)-1,2,4-thiadiazol-5-amine], 200 to 500 nM.
